These results are taken from patent US9187472B2 (AbbVie Inc., priority 2012, dated 2015).

For assay [1], the system named is PC3 cells. Description: NAMPT Cell Proliferation Assay. It is filed as cell-based. Conditions: Homo sapiens, PC-3, 120 h, 5 days incubation, cell viability by Cell Titer Glo. The procedure, abridged: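 Cell Titer Glo viability after 5-day exposure (37° C, 5% CO2); PC3, 500 cells/well, RPMI + 10% heat-inactivated FBS, overnight attachment before dosing. Dose range 10 μM to 1×10^−5 μM, 10-fold steps. IC50 = sigmoidal fit of % inhibition.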
(Cellular ATP, detected with luciferase, serves as a proxy for viable cell number.)

In assay [2] the target is NAMPT (human, recombinant, C-terminally His-tagged) (Homo sapiens, UniProt P43490). As to the kind of experiment: Time-Resolved Fluorescence Resonance Energy Transfer (TR-FRET) Binding Assay of NAMPT. The settings on record: without substrates; 6.8 nM NAMPT, 200 nM probe, 3 hours equilibration. The procedure, abridged: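 Probe displacement by compound was measured with 6.8 nM NAMPT, 200 nM Oregon Green 488-conjugated nicotinamide-competitive inhibitor probe and 1 nM Tb-anti-His antibody in 50 mM HEPES pH 7.5, 100 mM NaCl, 10 mM MgCl2, 1 mM DTT, 1% glycerol, 2% DMSO (final). After 3 h at room temperature, TR-FRET was read; IC50 from four-parameter logistic fit.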
(In general: TR-FRET usually uses a lanthanide donor and a delayed reading to cut background.)

The target in assay [3] is NAMPT (Homo sapiens, UniProt P43490). Description: TR-FRET Binding Assay of NAMPT with PRPP. Conditions: with 200 μM PRPP and 2.5 mM ATP; 2 nM NAMPT, 2 nM probe, 16 hours equilibration. The procedure, abridged: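 Run in the presence of substrates (200 μM PRPP, 2.5 mM ATP) with final 2 nM NAMPT, 2 nM probe, 1 nM Tb-anti-His antibody and 2% DMSO. Mixtures equilibrated 16 h before TR-FRET measurement so test compounds could be enzymatically modified.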

pIC50: −log10 of the molar value.

Sequence of NAMPT (human, recombinant, C-terminally His-tagged) (P43490 whole entry): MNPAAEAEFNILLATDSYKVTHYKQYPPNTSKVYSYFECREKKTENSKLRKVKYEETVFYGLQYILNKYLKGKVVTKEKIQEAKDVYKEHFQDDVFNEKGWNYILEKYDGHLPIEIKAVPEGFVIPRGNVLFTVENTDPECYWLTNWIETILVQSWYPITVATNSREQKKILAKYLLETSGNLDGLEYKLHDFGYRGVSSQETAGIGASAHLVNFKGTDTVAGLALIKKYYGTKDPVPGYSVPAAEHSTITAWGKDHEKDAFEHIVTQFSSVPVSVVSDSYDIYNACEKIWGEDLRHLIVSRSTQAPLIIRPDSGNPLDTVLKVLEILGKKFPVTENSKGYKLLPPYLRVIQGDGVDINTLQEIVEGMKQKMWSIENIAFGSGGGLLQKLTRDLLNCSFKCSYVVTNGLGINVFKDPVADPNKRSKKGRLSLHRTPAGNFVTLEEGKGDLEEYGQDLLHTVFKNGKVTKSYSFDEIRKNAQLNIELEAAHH
Sequence of NAMPT (P43490 whole entry): as above

The pIC50 is the IC50 on a negative log10 scale, so that one unit is a factor of ten. Regarding `O=C(NCc1ccc2nccn2c1)c1cnc(N(CC2CCOC2)C(=O)C2CCOCC2)s1` (stereo not drawn) [Example 140, N-(imidazo[1,2-a]pyridin-6-ylmethyl)-2-[(tetrahydrofuran-3-ylmethyl)(tetrahydro-2H-pyran-4-ylcarbonyl)amino]-1,3-thiazole-5-carboxamide], the pIC50 in assay [1] is 7.18; in assay [2], 5.87; in assay [3], 9.03.

With `O=C(NCc1cn2ccnc2cn1)c1ccc(C2CCN(C(=O)c3cc(F)ccc3F)CC2)cc1` [Example 813, 4-[1-(2,5-difluorobenzoyl)piperidin-4-yl]-N-(imidazo[1,2-a]pyrazin-6-ylmethyl)benzamide], the pIC50 in assay [1] was 8.66; in assay [2] it was 7.95; in assay [3] it was 8.82.

Consider `CCC(C)(C)C(=O)N1CC(c2ccc(C(=O)NCc3ccn4ccnc4c3)cc2)C1` [Example 647, 4-[1-(2,2-dimethylbutanoyl)azetidin-3-yl]-N-(imidazo[1,2-a]pyridin-7-ylmethyl)benzamide], for which the pIC50 in assay [1] was 8.16; in assay [2], 6.76; in assay [3] it was 9.17.

Take `CC(C)(C)OC(=O)N1CCC(c2ccc(NC(=O)NCc3ccn4ccnc4c3)cc2)CC1` [Example 216, tert-butyl 4-(4-{[(imidazo[1,2-a]pyridin-7-ylmethyl)carbamoyl]amino}phenyl)piperidine-1-carboxylate]: the figures for the pIC50 in assay [1], in assay [2] and in assay [3] were 8.18, 6.93 and 9.72, respectively.

Regarding `CS(=O)(=O)N1CCC(c2ccc(C(=O)NCc3ccn4ccnc4c3)s2)CC1` [Example 271, N-(imidazo[1,2-a]pyridin-7-ylmethyl)-5-[1-(methylsulfonyl)piperidin-4-yl]thiophene-2-carboxamide], the negative-log IC50 (pIC50) in assay [1] is 8.57; in assay [2], 7.29; in assay [3], 9.77.

On to `O=C(NCc1ccc2nccn2c1)c1ccc(C2=CCN(C(=O)C3CCC(F)(F)CC3)CC2)cc1` [Example 105, 4-{1-[(4,4-difluorocyclohexyl)carbonyl]-1,2,3,6-tetrahydropyridin-4-yl}-N-(imidazo[1,2-a]pyridin-6-ylmethyl)benzamide], for which the pIC50 in assay [1] was 8.18; in assay [2] it was 6.97; in assay [3] it was 9.32.

Take `O=C(NCCCCC1CCN(C(=O)C2COCCO2)CC1)Nc1ccc2nccn2c1` (stereo not drawn) [Example 63, 1-{4-[1-(1,4-dioxan-2-ylcarbonyl)piperidin-4-yl]butyl}-3-imidazo[1,2-a]pyridin-6-ylurea]: the pIC50 is 7.77 in assay [1], 6.20 in assay [2] and 9.55 in assay [3].

For the molecule `O=C(NCc1ccn2ccnc2c1)Nc1ccc(C2CN(C(=O)C3CCOCC3)C2)cc1` [Example 460, 1-(imidazo[1,2-a]pyridin-7-ylmethyl)-3-{4-[1-(tetrahydro-2H-pyran-4-ylcarbonyl)azetidin-3-yl]phenyl}urea], the pIC50 is 7.29 in assay [1], 6.24 in assay [2] and 9.51 in assay [3].

Consider `O=C(NCc1ccn2ccnc2c1)Nc1ccc(O[C@@H]2CCN(C(=O)c3cccc(F)c3)C2)cc1` [Example 690, 1-(4-{[(3R)-1-(3-fluorobenzoyl)pyrrolidin-3-yl]oxy}phenyl)-3-(imidazo[1,2-a]pyridin-7-ylmethyl)urea], for which the pIC50 is 7.86 in assay [1], 7.19 in assay [2] and 8.91 in assay [3].

Regarding `O=C(NCc1ccn2ccnc2c1)c1ccc(-c2cnn(CC3CCCOC3)c2)s1` (stereo not drawn) [Example 253, N-(imidazo[1,2-a]pyridin-7-ylmethyl)-5-[1-(tetrahydro-2H-pyran-3-ylmethyl)-1H-pyrazol-4-yl]thiophene-2-carboxamide], the pIC50 is 9.15 in assay [1], 7.84 in assay [2] and 9.64 in assay [3].

As to `COCCOCC(=O)N1CCC(CCCCNC(=O)Nc2ccc3nccn3c2)CC1` [Example 70, 1-imidazo[1,2-a]pyridin-6-yl-3-(4-{1-[(2-methoxyethoxy)acetyl]piperidin-4-yl}butyl)urea], the pIC50 is 7.56 in assay [1], 6.15 in assay [2] and 9.21 in assay [3].
